The values that follow come from patent US20230303497A1, “BENZYLAMINE OR BENZYL ALCOHOL DERIVATIVE AND USES THEREOF” (CHENGDU HYPERWAY PHARMACEUTICALS CO., LTD, priority 2020, published 2023).

The target in one assay is human NaV1.8 ion channel (Homo sapiens (Human), UniProt Q9Y5Y9). The assay can be described thus: Compound inhibition activity on human NaV1.8 ion channel in HEK293 cells (whole-cell patch clamp). The assay is classed as cell-based. The conditions noted are these: 100 nm concentration; HEK293 cells, resting protocol; read-out: Inhibition ratio of Nav1.8 (Activity of inhibition). As to the method: Test Case 1: Compound Inhibition Activity on Human NaV1.8 Ion Channel in HEK293 Cells
human NaV1.8 ion channel, sequence (Q9Y5Y9 whole entry): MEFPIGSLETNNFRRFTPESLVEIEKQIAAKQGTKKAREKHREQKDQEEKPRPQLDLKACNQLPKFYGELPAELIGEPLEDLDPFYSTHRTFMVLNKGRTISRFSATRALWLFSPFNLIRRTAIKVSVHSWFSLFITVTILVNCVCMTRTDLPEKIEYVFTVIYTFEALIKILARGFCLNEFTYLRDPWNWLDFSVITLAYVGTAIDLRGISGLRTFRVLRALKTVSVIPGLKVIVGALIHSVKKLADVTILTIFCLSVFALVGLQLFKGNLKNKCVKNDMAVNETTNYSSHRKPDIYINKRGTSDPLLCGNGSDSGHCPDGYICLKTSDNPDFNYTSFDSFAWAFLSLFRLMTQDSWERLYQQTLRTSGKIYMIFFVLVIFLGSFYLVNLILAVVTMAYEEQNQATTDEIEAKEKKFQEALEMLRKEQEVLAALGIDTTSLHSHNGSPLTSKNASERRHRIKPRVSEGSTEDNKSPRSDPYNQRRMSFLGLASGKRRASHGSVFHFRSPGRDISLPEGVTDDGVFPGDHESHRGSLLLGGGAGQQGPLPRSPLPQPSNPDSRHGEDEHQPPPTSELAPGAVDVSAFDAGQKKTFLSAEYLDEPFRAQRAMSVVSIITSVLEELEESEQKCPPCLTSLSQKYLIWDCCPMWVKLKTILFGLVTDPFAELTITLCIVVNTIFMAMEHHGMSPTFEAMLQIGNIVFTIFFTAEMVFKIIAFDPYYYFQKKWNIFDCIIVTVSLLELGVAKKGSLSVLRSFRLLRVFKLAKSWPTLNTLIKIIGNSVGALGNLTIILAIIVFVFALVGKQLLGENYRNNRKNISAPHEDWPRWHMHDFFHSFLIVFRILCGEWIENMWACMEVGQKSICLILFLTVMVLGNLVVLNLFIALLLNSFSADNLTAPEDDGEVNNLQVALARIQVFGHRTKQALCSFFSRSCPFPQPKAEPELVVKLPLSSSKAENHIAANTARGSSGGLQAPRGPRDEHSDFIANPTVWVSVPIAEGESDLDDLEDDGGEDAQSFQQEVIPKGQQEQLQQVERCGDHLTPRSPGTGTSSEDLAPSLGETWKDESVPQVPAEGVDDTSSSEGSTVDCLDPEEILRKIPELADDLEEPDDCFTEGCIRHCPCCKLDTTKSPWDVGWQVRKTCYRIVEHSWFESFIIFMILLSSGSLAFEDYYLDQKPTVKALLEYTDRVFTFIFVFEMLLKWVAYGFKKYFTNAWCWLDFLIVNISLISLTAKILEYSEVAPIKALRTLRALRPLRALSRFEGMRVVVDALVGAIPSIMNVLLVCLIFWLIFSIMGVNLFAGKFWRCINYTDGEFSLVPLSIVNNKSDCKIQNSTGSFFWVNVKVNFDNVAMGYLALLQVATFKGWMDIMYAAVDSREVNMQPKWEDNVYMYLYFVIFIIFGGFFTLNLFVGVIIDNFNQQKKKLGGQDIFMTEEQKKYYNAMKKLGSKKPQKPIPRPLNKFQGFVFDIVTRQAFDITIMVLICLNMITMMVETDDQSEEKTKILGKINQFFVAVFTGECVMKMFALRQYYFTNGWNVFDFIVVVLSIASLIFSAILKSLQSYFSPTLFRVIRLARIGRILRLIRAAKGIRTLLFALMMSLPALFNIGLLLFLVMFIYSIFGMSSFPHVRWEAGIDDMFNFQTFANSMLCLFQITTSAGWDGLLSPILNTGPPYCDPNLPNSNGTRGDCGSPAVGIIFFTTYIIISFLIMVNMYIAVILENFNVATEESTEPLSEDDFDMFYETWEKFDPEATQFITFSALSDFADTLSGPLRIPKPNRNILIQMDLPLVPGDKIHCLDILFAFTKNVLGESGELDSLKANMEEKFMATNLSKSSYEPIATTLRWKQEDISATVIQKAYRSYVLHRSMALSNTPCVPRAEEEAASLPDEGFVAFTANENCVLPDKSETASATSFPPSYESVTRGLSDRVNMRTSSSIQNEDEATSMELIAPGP
The final concentrations of the test compounds are prepared on the same day and then dissolved in extracellular solution. […] The intracellular solution (mM) contains: Aspartic acid, 140; MgCl2, 2; EGTA 11; HEPES, 10; pH 7.2 (CsOH titration). All test solutions contain 1 μM TTX.
The test solution are stored at a concentration of 3 mM in dimethyl sulfoxide (DMSO). The solutions will be dissolved in extracellular solution on the day of testing and prepared to the required concentration.
All experiments were performed at room temperature. Each cell itself is taken as the corresponding control.
At least one cell is tested per concentration.
HEK293 cell steady expressing NaV1.8 ion channel.
The intracellular fluid (mM) contains: Aspartic acid, 140; MgCl2, 2; EGTA 11; HEPES, 10; pH 7.2 (CsOH titration). […] Electrodes are drawn with PC-10 (Narishige, Japan). Recording is performed with whole-cell diaphragm clamp.
The cells are clamped at −80 mV and then depolarized to 10 mV with a sustained 10 ms square wave to give a Nav1.8 current. This procedure is repeated every 5 seconds.
In the case of `Cc1cc(F)ccc1Oc1cc(C2CC2)c(C(F)(F)F)cc1C(=O)Nc1ccc(F)c(C(F)CCO)c1` (stereo not drawn) [Example 31, 4-Cyclopropyl-2-(4-fluoro-2-methylphenoxy)-N-(4-fluoro-3-(1-fluoro-3-hydroxypropyl)phenyl)-5-(trifluoromethyl) benzamide], the inhibition at 0.1 µM fell in the range of 50 to 80%.

For `Cc1cc(F)ccc1Oc1cc(C(F)(F)F)ccc1C(=O)Nc1ccc(F)c(C(N)C(N)=O)c1` (stereo not drawn) [Example 41], the inhibition at 0.1 µM is above 80%.

As to `COCCC(N)c1cc(NC(=O)c2cc(C(F)(F)F)c(C3CC3)cc2Oc2ccc(F)cc2C)ccc1F` (stereo not drawn) [Example 5, N-(3-(1-Amino-3-methoxypropyl)-4-fluorophenyl)-4-cyclopropyl-2-(4-fluoro-2-methylphenoxy)-5-(trifluoromethyl) benzamide], the inhibition at 0.1 µM was in the range of 50 to 80%.

`Cc1cc(F)ccc1Oc1ccc(C(F)(F)F)cc1C(=O)Nc1ccc(F)c(C(O)C(N)=O)c1` (stereo not drawn) [Example 26, N-(3-(2-Amino-1-hydroxy-2-oxoethyl)-4-fluorophenyl)-2-(4-fluoro-2-methylphenoxy)-5-(trifluoromethyl) benzamide]: the inhibition at 0.1 µM fell in the range of 20 to 50%.

In the case of `Cc1cc(F)ccc1Oc1cc(C2CC2)c(C(F)(F)F)cc1C(=O)Nc1ccc(F)c(C(N)C(N)=O)c1` (stereo not drawn) [Example 9, 4-Cyclopropyl-N-(3-(1,2-diamino-2-oxoethyl)-4-fluorophenyl)-2-(4-fluoro-2-methylphenoxy)-5-(trifluoromethyl) benzamide], the inhibition at 0.1 µM was above 80%.

In the case of `Cc1cc(F)ccc1Oc1cc(C2CC2)c(C(F)(F)F)cc1C(=O)Nc1ccnc(C(N)CC(N)=O)c1` (stereo not drawn) [Example 35], the inhibition at 0.1 µM was above 80%.

In the case of `Cc1cc(F)ccc1Oc1cc(C2CC2)c(C(F)(F)F)cc1C(=O)Nc1ccc(F)c(C(C)CCN)c1` (stereo not drawn) [Example 29, N-(3-(4-Aminobutan-2-yl)-4-fluorophenyl)-4-cyclopropyl-2-(4-fluoro-2-methylphenoxy)-5-(trifluoromethyl) benzamide], the inhibition at 0.1 µM was 50 to 80%.

In the case of `Cc1cc(F)ccc1Oc1cc(C(F)(F)F)ccc1C(=O)Nc1ccc(F)c(C(N)CC(N)=O)c1` (stereo not drawn) [Example 39], the inhibition at 0.1 µM was above 80%.

Consider `Cc1cc(F)ccc1Oc1ccc(C(F)(F)F)cc1C(=O)Nc1ccc(F)c(C(C)N)c1` (stereo not drawn) [Example 14, N-(3-(1-aminoethyl)-4-fluorophenyl)-2-(4-fluoro-2-methylphenoxy)-5-(trifluoromethyl) benzamide], for which the inhibition at 0.1 µM is 50 to 80%.

For `CNC(C(N)=O)c1cc(NC(=O)c2cc(C(F)(F)F)c(C3CC3)cc2Oc2ccc(F)cc2C)ccc1F` (stereo not drawn) [Example 10, N-(3-(2-amino-1-(methylamino)-2-oxoethyl)-4-fluorophenyl)-4-cyclopropyl-2-(4-fluoro-2-methylphenoxy)-5-(trifluoromethyl) benzamide], the inhibition at 0.1 µM is above 80%.

On to `Cc1cc(F)ccc1Oc1cc(C2CC2)c(C(F)(F)F)cc1C(=O)Nc1ccc(F)c(C(F)(F)CCO)c1` [Example 32, 4-Cyclopropyl-N-(3-(1,1-difluoro-3-hydroxypropyl)-4-fluorophenyl)-2-(4-fluoro-2-methylphenoxy)-5-(trifluoromethyl) benzamide], for which the inhibition at 0.1 µM is 20 to 50%.

For `Cc1cc(F)ccc1Oc1ccc(C(F)(F)F)cc1C(=O)Nc1ccc(F)c(CN)c1` [Example 12, N-(3-(Aminomethyl)-4-fluorophenyl)-2-(4-fluoro-2-methylphenoxy)-5-(trifluoromethyl) benzamide], the inhibition at 0.1 µM fell in the range of 50 to 80%.

Consider `Cc1cc(F)ccc1Oc1ccc(C(F)(F)F)cc1C(=O)Nc1ccc(F)c(C(O)C2CCNC2=O)c1` (stereo not drawn) [Example 25, 2-(4-fluoro-2-methylphenoxy)-N-(4-fluoro-3-(hydroxyl (2-oxopyrrolidin-3-yl)methyl)phenyl)-5-(trifluoromethyl) benzamide], for which the inhibition at 0.1 µM was in the range of 20 to 50%.

Staying with this assay, now noted: 100 nm concentration; HEK293 cells, resting protocol; read-out: Inhibition ratio of compounds against Nav1.8 (Activity of inhibition).
Turning to `Cc1cc(F)ccc1Oc1cc(C2CC2)c(C(F)(F)F)cc1C(=O)Nc1ccc(F)c(OCC(O)CNC(C)C(F)(F)F)c1` (stereo not drawn) [Example 91], the inhibition at 0.1 µM was 20 to 50%.

Take `Cc1cc(F)ccc1Oc1cc(C2CC2)c(C(F)(F)F)cc1C(=O)Nc1ccc(F)c(C(C)CC(N)=O)c1` (stereo not drawn) [Example 48, N-(3-(4-Amino-4-oxobutan-2-yl)-4-fluorophenyl)-4-cyclopropyl-2-(4-fluoro-2-methylphenoxy)-5-(trifluoromethyl) benzamide]: the inhibition at 0.1 µM was above 80%.

Turning to `Cc1cc(F)ccc1Oc1cc(C2CC2)c(C(F)(F)F)cc1C(=O)Nc1ccc(F)c(C(F)CN)c1` (stereo not drawn) [Example 47, N-(3-(2-Amino-1-fluoroethyl)-4-fluorophenyl)-4-cyclopropyl-2-(4-fluoro-2-methylphenoxy)-5-(trifluoromethyl) benzamide], the inhibition at 0.1 µM is 50 to 80%.

Turning to `Cc1cc(F)ccc1Oc1cc(C2CC2)c(C(F)(F)F)cc1C(=O)Nc1ccc(F)c(OCC2CNCCO2)c1` (stereo not drawn) [Example 80], the inhibition at 0.1 µM is 50 to 80%.

With `COc1cc(OC(F)(F)F)ccc1Oc1cc(C(F)(F)F)c(Cl)cc1C(=O)Nc1ccnc(OC[C@H](O)CO)c1` [Example 121], the inhibition at 0.1 µM was above 80%.

For the compound `Cc1cc(F)ccc1Oc1cc(C2CC2)c(C(F)(F)F)cc1C(=O)Nc1ccc(F)c(OCC(=O)NCC(F)(F)F)c1` [Example 61], the inhibition at 0.1 µM fell in the range of 20 to 50%.

As to `Cc1cc(F)ccc1Oc1cc(C2CC2)c(C(F)(F)F)cc1C(=O)Nc1cnnc(OCC(O)CO)c1` (stereo not drawn) [Example 102], the inhibition at 0.1 µM lay in the range of 50 to 80%.

For the compound `Cc1cc(F)ccc1Oc1cc(C2CC2)c(C(F)(F)F)cc1C(=O)Nc1ccc(F)c(OCC2CCCN2)c1` (stereo not drawn) [Example 68], the inhibition at 0.1 µM fell in the range of 20 to 50%.

For the compound `Cc1cc(F)ccc1Oc1cc(C2CC2)c(C(F)(F)F)cc1C(=O)Nc1ccc(F)c(OC2CCC(CN)OC2)c1` (stereo not drawn) [Example 85], the inhibition at 0.1 µM lay in the range of 20 to 50%.

With `Cc1cc(F)ccc1Oc1cc(C2CC2)c(C(F)(F)F)cc1C(=O)Nc1ccc(F)c(OCC(=O)NC2(C(F)(F)F)CC2)c1` [Example 89], the inhibition at 0.1 µM fell in the range of 50 to 80%.

Regarding `Cc1cc(F)ccc1Oc1cc(C(F)(F)F)c(Cl)cc1C(=O)Nc1ccnc(OC[C@@H](O)CO)c1` [Example 113, (S)-5-chloro-N-(2-(2,3-dihydroxypropoxy)pyridin-4-yl)-2-(4-fluoro-2-methylphenoxy)-4-(trifluoromethyl) benzamide], the inhibition at 0.1 µM was above 80%.

Consider `Cc1cc(F)ccc1Oc1cc(C2CC2)c(C(F)(F)F)cc1C(=O)Nc1ccc(F)c(OCC(O)CNCC(F)(F)F)c1` (stereo not drawn) [Example 87], for which the inhibition at 0.1 µM is 50 to 80%.

As for `Cc1cc(F)ccc1Oc1cc(C2CC2)c(C(F)(F)F)cc1C(=O)Nc1ccc(F)c(C2CCNC(=O)N2)c1` (stereo not drawn) [Example 51, 4-Cyclopropyl-2-(4-fluoro-2-methylphenoxy)-N-(4-fluoro-3-(2-oxohexahydropyrimidin-4-yl)phenyl)-5-(trifluoromethyl) benzamide], the inhibition at 0.1 µM is above 80%.

In the case of `Cc1cc(F)ccc1Oc1cc(C(F)(F)F)ccc1C(=O)Nc1ccc(F)c(OCC(O)CN)c1` (stereo not drawn) [Example 110], the inhibition at 0.1 µM fell in the range of 50 to 80%.

Take `Cc1cc(F)ccc1Oc1cc(C(F)(F)F)c(Cl)cc1C(=O)Nc1ccc(F)c(OCC(O)CNC(C)C)c1` (stereo not drawn) [Example 106]: the inhibition at 0.1 µM is above 80%.

Regarding `Cc1cc(F)ccc1Oc1cc(C2CC2)c(C(F)(F)F)cc1C(=O)Nc1ccc(F)c(OCC(O)CNC(C)(C)C)c1` (stereo not drawn) [Example 77], the inhibition at 0.1 µM was above 80%.

For `Cc1cc(F)ccc1Oc1cc(C2CC2)c(C(F)(F)F)cc1C(=O)Nc1cnnc(OC[C@@H](O)CO)c1` [Example 111], the inhibition at 0.1 µM is 50 to 80%.

For `Cc1cc(F)ccc1Oc1cc(C2CC2)c(C(F)(F)F)cc1C(=O)Nc1ccc(F)c(C(CCO)N2CCCC2)c1` (stereo not drawn) [Example 72], the inhibition at 0.1 µM was 50 to 80%.

In the case of `Cc1cc(F)ccc1Oc1cc(C(F)(F)F)c(Cl)cc1C(=O)Nc1cnnc(OC[C@@H](O)CO)c1` [Example 115], the inhibition at 0.1 µM was 50 to 80%.

Regarding `Cc1cc(F)ccc1Oc1cc(C(F)(F)F)ccc1C(=O)Nc1ccc(F)c(OCC(O)CNC(=O)CO)c1` (stereo not drawn) [Example 107], the inhibition at 0.1 µM lay in the range of 50 to 80%.

For the compound `Cc1cc(F)ccc1Oc1cc(C(F)(F)F)ccc1C(=O)Nc1cnnc(OC[C@H](O)CO)c1` [Example 109], the inhibition at 0.1 µM lay within 20 to 50%.

Take `Cc1cc(F)ccc1Oc1cc(C(F)(F)F)c(Cl)cc1C(=O)Nc1cnnc(OCC(O)CO)c1` (stereo not drawn) [Example 101]: the inhibition at 0.1 µM was 50 to 80%.

For the compound `Cc1cc(F)ccc1Oc1cc(C2CC2)c(C(F)(F)F)cc1C(=O)Nc1ccc(F)c(OCC(O)CNC2(C(=O)O)CC2)c1` (stereo not drawn) [Example 86], the inhibition at 0.1 µM lay in the range of 20 to 50%.

As for `Cc1cc(F)ccc1Oc1cc(C2CC2)c(C(F)(F)F)cc1C(=O)Nc1ccc(F)c(OCC(O)CNc2nccs2)c1` (stereo not drawn) [Example 98], the inhibition at 0.1 µM was above 80%.

In the case of `Cc1cc(F)ccc1Oc1cc(C(F)(F)F)c(Cl)cc1C(=O)Nc1ccnc(OCC(O)CO)c1` (stereo not drawn) [Example 103], the inhibition at 0.1 µM was above 80%.

The same assay, now with this note: HEK293, read-out: Inhibition ratio of compounds against Nav1.8 (Activity of inhibition).
Consider `Cc1cc(F)ccc1Oc1cc(C2CC2)c(C(F)(F)F)cc1C(=O)Nc1ccc(F)c(OCCOC(N)=O)c1` [Example 62, (2-(5-(4-Cyclopropyl-2-(4-fluoro-2-methylphenoxy)-5-(trifluoromethyl)benzamido)-2-fluorophenoxy)ethyl) carbamate], for which the inhibition at 0.1 µM fell in the range of 50 to 80%.
